In article PMC3135787 (Antiviral research, 2011):
Like-named read-outs stand apart in the source and are kept apart here. Values belong to the molecule of their own block, whether it stands above or below them.

Legend:
[1] = system: ET replicon with NS5B S96T/N142T; experiment: microbe, parasite or virus in culture; type: cell-based, HCV; conditions: for EC90: read-out: EC90 Mutant replicon; for EC90 fold change: S96T/N142T mutant EC90 normalised to wild-type
[2] = system: Clone A wild type replicon; experiment: Cross resistance: Clone A wild type replicon, RT-PCR; type: cell-based, HCV; conditions: read-out: EC90 WT replicon
[3] = system: Clone A replicon with NS5B S282T; experiment: microbe, parasite or virus in culture; type: cell-based, HCV; conditions: for EC90: read-out: EC90 Mutant replicon; for EC90 fold change: S282T mutant EC90 normalised to wild-type
[4] = system: genotype 1b ET replicon, wild type; type: cell-based, HCV; conditions: read-out: EC90 WT replicon; wild-type ET replicon, luciferase-based assay
[5] = system: ET replicon with NS5B M423T; type: cell-based, HCV
[6] = system: ET replicon with NS5B P495L; experiment: microbe, parasite or virus in culture; type: cell-based, HCV
[7] = system: Human nucleoside diphosphate kinase (NDPK); experiment: NDPK-mediated phosphorylation, coupled assay; type: biochemical
[8] = system: primary human hepatocytes; experiment: Metabolism of [3H]-PSI-353661 in primary human hepatocytes; type: in vitro ADME; conditions: continuous exposure to 5 μM [3H]-PSI-353661
[9] = molecular target: T1, recombinant human ADAL1 (Homo sapiens, UniProt Q6DHV7); experiment: ADAL1-mediated demethylation assay; type: biochemical; conditions: ADAL1, pH 6.7, 37°C
T1 sequence (Q6DHV7 1-355): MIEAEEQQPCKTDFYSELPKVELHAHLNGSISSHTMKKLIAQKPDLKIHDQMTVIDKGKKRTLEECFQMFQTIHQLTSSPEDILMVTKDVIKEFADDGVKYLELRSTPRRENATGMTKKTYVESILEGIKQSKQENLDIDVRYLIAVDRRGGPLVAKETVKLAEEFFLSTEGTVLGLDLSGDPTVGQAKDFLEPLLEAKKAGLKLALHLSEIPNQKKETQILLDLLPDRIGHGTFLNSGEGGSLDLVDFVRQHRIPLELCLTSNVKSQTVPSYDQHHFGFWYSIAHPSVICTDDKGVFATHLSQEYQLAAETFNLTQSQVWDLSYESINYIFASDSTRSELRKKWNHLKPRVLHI

[10] = molecular target: T2, Human guanylate kinase (hGUK1) (Homo sapiens, UniProt Q16774); experiment: hGUK1-mediated phosphorylation, coupled spectrophotometric assay; type: biochemical
T2 sequence (Q16774 1-197): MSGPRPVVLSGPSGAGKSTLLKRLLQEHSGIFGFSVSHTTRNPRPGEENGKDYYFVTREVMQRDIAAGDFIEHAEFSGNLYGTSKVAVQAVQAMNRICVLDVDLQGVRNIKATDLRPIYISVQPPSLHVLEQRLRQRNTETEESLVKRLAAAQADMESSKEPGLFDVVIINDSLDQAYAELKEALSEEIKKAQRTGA

[11] = 8-day MTS cytotoxicity assay, Huh7; type: cell-based, human; conditions: human, Huh7 cells
[12] = 8-day MTS cytotoxicity assay, HepG2; type: cell-based, human; conditions: human, HepG2 cells
[13] = 8-day MTS cytotoxicity assay, BxPC3; type: cell-based, human; conditions: human, BxPC3 cells
[14] = 8-day MTS cytotoxicity assay, CEM; type: cell-based, human; conditions: human, CEM cells
[15] = system: genotype 1a H77 subgenomic replicon; experiment: HCV replicon assay, genotype 1a H77; type: cell-based; conditions: GT1a_H77 replicon, four days
[16] = system: genotype 1b replicon (Con1 strain); experiment: HCV replicon assay, genotype 1b Con1; type: cell-based; conditions: GT1b_Con1 replicon, four days (96 h)
[17] = system: genotype 2a J6/JFH-1 subgenomic replicon; experiment: HCV replicon assay, genotype 2a J6/JFH-1; type: cell-based; conditions: GT2a_JFH-1 replicon, four days
[18] = system: ET replicon with NS5B C316Y; experiment: microbe, parasite or virus in culture; type: cell-based, HCV
[19] = system: ET replicon with NS5B M414T; experiment: microbe, parasite or virus in culture; type: cell-based, HCV
[20] = system: HepG2 cells; experiment: Mitochondrial COXII DNA and ribosomal DNA by real time PCR, HepG2; type: cell-based, human; conditions: HepG2 cells, 0.5 μM (lowest concentration tested), 14 days
[21] = system: mitochondrial COXII DNA (mtDNA); experiment: as above; type: cell-based, human; conditions: human
[22] = system: ribosomal DNA (rDNA); experiment: as above; type: cell-based, human; conditions: human, HepG2 cells
[23] = system: CEM cells; experiment: Mitochondrial COXII DNA and ribosomal DNA by real time PCR, CEM; type: cell-based, human; conditions: CEM cells, 0.5 μM (lowest concentration tested), 14 days
[24] = system: mitochondrial COXII DNA (mtDNA); experiment: as above; type: cell-based, human; conditions: human
[25] = system: ribosomal DNA (rDNA); experiment: as above; type: cell-based, human; conditions: human, CEM cells
[26] = system: CEM cells; experiment: Lactic acid production, CEM; conditions: 7 days, normalised to rDNA
[27] = system: HepG2 cells; experiment: Lactic acid production, HepG2; conditions: 7 days, normalised to rDNA
[28] = system: erythroid progenitor cells (CFU-E and BFU-E); experiment: Human bone marrow stem cell toxicity, 14-day colony formation, erythroid; type: cell-based; conditions: 1 μg/mL (4 μM), 14 days
[29] = system: myeloid progenitor cells (CFU-GM); experiment: Human bone marrow stem cell toxicity, 14-day colony formation, myeloid; type: cell-based; conditions: 1 μg/mL (4 μM), 14 days
[30] = Hepatitis C virus, read-out: EC90 Mutant replicon

SMILES: [N-]=[N+]=N[C@]1(CO)O[C@@H](n2ccc(N)nc2=O)[C@H](O)[C@@H]1O [R1479, 4′-azidocytidine]
EC90 ([1]; Hepatitis C virus): 74.1 ± 12.1 µM | EC90 fold change [1]: 4.7 | EC90 ([2]; Hepatitis C virus): 22.4 ± 4.58 µM | EC90 ([3]; Hepatitis C virus): 12.5 ± 3.78 µM | EC90 fold change [3]: 0.6

SMILES: CC(C)N(c1cc(-c2ccccc2)sc1C(=O)O)C(=O)[C@H]1CC[C@H](C)CC1 [Thiophene, 3-((1r,4r)-N-isopropyl-4-methylcyclohexanecarboxamido)-5-phenylthiophene-2-carboxylic acid, reference compound]
EC90 [4]: 3.65 ± 0.21 µM | EC90 fold change ([5]; M423T mutant EC90 normalised to wild-type): 19.1 | EC90 ([5]; read-out: EC90 Mutant replicon, M423T, luciferase-based assay): 69.5 ± 9.24 µM

SMILES: COc1ccc2c(c1)C1CC1(N)Cn1c-2c(C2CCCCC2)c2ccc(C(=O)NS(=O)(=O)N(C)C)cc21 (stereo not shown) [2-phenol indole, 5a-amino-12-cyclohexyl-N-(N,N-dimethylsulfamoyl)-3-methoxy-4b,5,5a,6-tetrahydrobenzo [3,4] cyclopropa [5,6] azepino [1,2-a] indole-9-carboxamide, reference compound]
EC90 [6, 30]: 60.8 ± 19.9 µM | EC90 fold change ([6]; P495L mutant EC90 normalised to wild-type): 51.9

kcat (apparent) ([7]; 25 °C, PK contributed in the phosphorylation): 38.8 ± 5.0 s⁻¹ | Km ([7]; read-out: Km (apparent), 25 °C, PK contributed in the phosphorylation): 56.2 ± 4.9 µM
SMILES: Nc1nc2c(ncn2[C@@H]2O[C@H](COP(=O)(O)OP(=O)(O)O)[C@@H](O)[C@H]2O)c(=O)[nH]1 [GDP, guanosine-5′-diphosphate, reference compound]

time to maximum intracellular concentration [8]: 0.5 to 1 h
SMILES: COc1nc(N)nc2c1ncn2[C@@H]1O[C@H](CO)[C@@H](O)[C@@]1(C)F [PSI-352878, (2R,3R,4R,5R)-5-(2-amino-6-methoxy-purin-9-yl)-4-fluoro-2-hydroxymethyl-4-methyl-tetrahydro-furan-3-ol]

Km [9]: 5.2 ± 0.9 µM | kcat [9]: 2.33 ± 0.07 s⁻¹
SMILES: COc1nc(N)nc2c1ncn2[C@@H]1O[C@H](COP(=O)(O)O)[C@@H](O)[C@H]1O [O^6-meGMP, O^6-methyl GMP, reference compound]

Km [9]: 12.5 ± 1.6 µM | kcat [9]: 1.58 ± 0.12 s⁻¹
SMILES: CNc1ncnc2c1ncn2[C@@H]1O[C@H](COP(=O)(O)O)[C@@H](O)[C@H]1O [N^6-meAMP, N^6-methyl AMP, reference compound]

time to maximum intracellular concentration [8]: 0.5 to 1 h | Km [9]: 9 ± 2.1 µM | kcat [9]: 5.84 ± 0.40 s⁻¹ | activity as substrate ([10]; hGUK1, 500 μM, the highest concentration tested): No activity | Km ([10]; hGUK1, 37°C): No activity | kcat ([10]; hGUK1, 37°C): No activity | kcat / Km ([10]; hGUK1, 37°C): No activity
SMILES: COc1nc(N)nc2c1ncn2[C@@H]1O[C@H](COP(=O)(O)O)[C@@H](O)[C@@]1(C)F [PSI-353224, 2-amino-6-methoxypurine 2′-deoxy-2′-α-fluoro-2-β-C-methylribose-5′-monophosphate]

time to maximum intracellular concentration [8]: 0.25 h | Km [9]: No activity | kcat [9]: No activity | kcat / Km [9]: No activity
SMILES: COc1nc(N)nc2c1ncn2[C@@H]1O[C@H](COP(=O)(O)N[C@@H](C)C(=O)O)[C@@H](O)[C@@]1(C)F [PSI-353131, (S)-2-{[(2R,3R,4R,5R)-5-(2-amino-6-methoxy-purin-9-yl)-4-fluoro-3-hydroxy-4-methyl-tetrahydro-furan-2-ylmethoxy]-hydroxy-phosphorylamino}-propionic acid]

SMILES: Nc1ccn([C@@H]2O[C@H](CO)[C@@H](O)C2(F)F)c(=O)n1 [Gemcitabine, 2′-deoxy-2′-difluorocytidine]
CC50 at 8 days [11]: < 1 µM | CC50 at 8 days [12]: < 1 µM | CC50 at 8 days [13]: < 1 µM | CC50 at 8 days [14]: < 1 µM

SMILES: C[C@@]1(F)[C@H](O)[C@@H](CO)O[C@H]1n1cnc2c(=O)[nH]c(N)nc21 [PSI-6567, 2′-F-2′-C-methylguanosine]
EC50 [15]: 19 ± 8.6 µM | EC90 [15]: 53.4 ± 12.8 µM | EC50 [16]: 22 ± 7.7 µM | EC90 [16]: 69.2 ± 19.3 µM | EC50 [17]: 38.3 ± 18.6 µM | EC90 [17]: 60 ± 14.8 µM | time to maximum intracellular concentration [8]: 0.5 to 1 h

SMILES: CNC(=O)c1c(-c2ccc(F)cc2)oc2cc(N(CCO)S(C)(=O)=O)c(C3CC3)cc12 [HCV-796, 5-cyclopropyl-2-(4-fluoro-phenyl)-6-[(2-hydroxy-ethyl)-methanesulfonyl-amino]-benzofuran-3-carboxylic acid methylamide, reference compound]
EC90 fold change ([18]; C316Y mutant EC90 normalised to wild-type): 73.9 | EC90 [18, 30]: 1.92 ± 0.77 µM

SMILES: CC(C)CCn1c(=O)c(C2=NS(=O)(=O)c3cc(N(C)S(C)(=O)=O)ccc3N2)c(O)c2cccn21 [Benzothiadiazine, N-{3-[4-Hydroxy-1-(3-methyl-butyl)-2-oxo-1,2-dihydro-pyrrolo[1,2-b]pyridazin-3-yl]-1,1-dioxo-1,4-dihydro-1λ^6-benzo[1,2,4]thiadiazin-7-yl}-N-methyl-methanesulfonamide, reference compound]
EC90 [19, 30]: 28.4 ± 13.7 µM | EC90 fold change ([19]; M414T mutant EC90 normalised to wild-type): 23.1

time to maximum intracellular concentration [8]: 1 to 2 h | Km compared to GMP (fold weaker) ([10]; hGUK1): 3.4 fold | kcat compared to GMP (fold lower) ([10]; hGUK1): approximately 240 fold | Km ([10]; hGUK1, 37°C): 64.9 ± 1.6 µM | kcat ([10]; hGUK1, 37°C): 0.31 ± 0.03 s⁻¹
SMILES: C[C@@]1(F)[C@H](O)[C@@H](COP(=O)(O)O)O[C@H]1n1cnc2c(=O)[nH]c(N)nc21 [PSI-353222, 2′-deoxy-2-α-fluoro-2-β-C-methylguanosine-5′-monophosphate]

SMILES: CC(C)OC(=O)[C@H](C)NP(=O)(OC[C@H]1O[C@@H](n2ccc(=O)[nH]c2=O)[C@](C)(F)[C@@H]1O)Oc1ccccc1 (stereo partly shown) [PSI-7851]
EC90 [4]: 0.43 ± 0.23 µM | EC90 fold change [1]: 0.9 | EC90 ([1]; S96T/N142T, luciferase-based assay): 0.39 ± 0.19 µM | EC90 ([2]; Clone A wild type replicon, RT-PCR assay): 0.44 ± 0.21 µM | EC90 fold change [3]: 16.7 | EC90 ([3]; S282T, RT-PCR assay): 7.36 ± 1.02 µM

SMILES: Nc1ccn([C@H]2CC[C@@H](CO)O2)c(=O)n1 [ddC, 2′,3′-dideoxycytidine]
reduction of mitochondrial DNA levels [20]: more than one log10 | CC90 at 14 days [21]: < 0.5 µM | CC90 at 14 days [22]: 12.9 ± 9.1 µM | reduction of mitochondrial DNA levels [23]: more than one log10 | CC90 at 14 days [24]: < 0.5 µM | CC90 at 14 days [25]: 22.9 ± 11.9 µM | Lactic acid (Fold change from untreated cells) ([26]; 0.1 μM): 0.9 ± 0.3 | Lactic acid (Fold change from untreated cells) ([26]; 1.0 μM): 2.2 ± 0.81 | Lactic acid (Fold change from untreated cells) ([26]; 10 μM): 4.2 ±1.0 | Lactic acid (Fold change from untreated cells) ([26]; 50 μM): Toxic | Lactic acid (Fold change from untreated cells) ([27]; 0.1 μM): 1.6 ± 0.68 | Lactic acid (Fold change from untreated cells) ([27]; 1.0 μM): 1.4 ± 0.12 | Lactic acid (Fold change from untreated cells) ([27]; 10 μM): 3.9 ± 0.93 | Lactic acid (Fold change from untreated cells) ([27]; 50 μM): Toxic.

SMILES: O=c1[nH]cc(F)c(=O)[nH]1 [5-fluorouracil, 5-Fluorouracil, reference compound]
inhibition of BFU-E colony formation [28]: completely inhibited | inhibition of CFU-GM colony formation [29]: completely inhibited
